Source: US20130109616A1, “ANTIMICROBIAL PEPTIDES” (priority 2010, published 2013)
“Also recorded” adds a separate entry of the source.

Key:
[1] = test system: Burkholderia cepacia J2540; format: cell-based
E. coli = assay: Modified microtitre broth dilution, IC50/IC90; format: cell-based, Escherichia coli; design: unit not given here
[2] = test system: B. anthracis UM23-CI2 spores; format: cell-based, Bacillus anthracis
[3] = test system: B. anthracis UM23-CI2 vegetative cells; format: cell-based, Bacillus anthracis
Vaccinia virus = format: cell-based
[4] = test system: Candida albicans (SC5314); assay: Serial dilution growth/killing assay; format: cell-based; conditions: serial dilutions, 14 hours at 30° C., FIG. 6; peptides C-terminally amidated
[5] = test system: Staphylococcus aureus (NC131142); assay: Serial dilution growth/killing assay; format: cell-based; conditions: peptides C-terminally amidated
[6] = test system: subtilisin or V8 protease; assay: Protease resistance: membrane-binding ELISA after protease pre-incubation; conditions: subtilisin and/or V8 protease, 30 minutes at room temperature, FIG. 1
[7] = test system: Bacillus subtilis membranes; assay: Membrane-binding ELISA; conditions: expressed peptide fused to 3×FLAG-10×His, no protease

| Substance | activity against B. cepacia at 24 hours [1] | reduction of the starting culture of B. cepacia [1] [%] | IC50 (E. coli) | IC90 (E. coli) | bactericidal activity against Bacillus anthracis spores (in words) [2] | duration of antibacterial activity, spores [2] | change in cell number, exponential phase cells [3] | duration of antibacterial activity, vegetative cells [3] | anti-viral activity against Vaccinia virus compared with LL-37 (Vaccinia virus) | killing of C. albicans compared with MAF-23 peptides [4] | colonies recovered, S. aureus ([5]; 25 nM peptide) | killing of S. aureus compared with MAF-23 peptides ([5]; serial dilutions, 14 hours at 30° C., FIG. 5) | effect on growth of B. cepacia [1] | activity against Bacillus anthracis vegetative cells (in words) [3] | ELISA binding signal after protease treatment (proteolytic resistance) [6] | binding to immobilised Bacillus subtilis membranes (ELISA signal) [7] |
| --- | --- | --- | --- | --- | --- | --- | --- | --- | --- | --- | --- | --- | --- | --- | --- | --- |
| FKRIVQRIKDFLRKLVPRIMS [Peptide H04] | no bacteria were detectable; also recorded: effective killing activity over the entire duration of the 24-hour testing period | 99.9 | 7.8-15.6 | 15.6-31.3 | improved bactericidal activity | still effective at the end of the 24-hour period | further reductions in cell number | still effective at the end of the 24-hour period | greater anti-viral activity than the wild-type peptide, LL-37 | – | – | – | – | – | – | – |
| FRRIVQRIKDFLRNLVMRRKN [Peptide F11, FRRIVQRIKDFLRNLV MRRKN] | effective killing activity over the entire duration of the 24-hour testing period | ~99 | 7.8-15.6 | 7.8-15.6 | improved bactericidal activity | still effective at the end of the 24-hour period | further reductions in cell number | still effective at the end of the 24-hour period | greater anti-viral activity than the wild-type peptide, LL-37 | killed C. albicans more effectively than the wild type peptides MAF23 and acetylated MAF23 | approximately 10^3 colonies/ml | killed S. aureus more effectively than the MA23 or N-terminally acetylated MA23 | – | – | – | – |
| LLGDFFRKSKEKIGKEFKRIVQRIKDFLRNLVPRTES [LL-37, reference compound] | – | – | 15.6-31.3 | 15.6-31.3 | better activity than MA-22 | activity was lost within the 24 hour period | – | – | – | – | – | – | no effect on the growth | did not have activity | – | – |
| LLGVFFRKRKAKIGKKFKRILQRIKDFRRNLVPRIKS [Peptide C11] | – | – | 15.6-31.3 | 31.3-62.5 | improved bactericidal activity | – | – | – | – | – | – | – | prevent B. cepacia from growing | – | – | – |
| VKRIVQRIKVFLRNLMPRSKS [Peptide G11] | – | – | 31.3-62.5 | 62.5-125 | improved bactericidal activity | – | – | – | – | – | – | – | prevent B. cepacia from growing | – | increase signal strength | – |
| wild-type full length LL-37 peptide fused to 3×FLAG-10×His [reference compound] | – | – | – | – | – | – | – | – | – | – | – | – | – | – | abolished the signal | significant binding |
